# Results reported in ChEMBL document CHEMBL2385007, “Synthesis and biological evaluation of prodrugs of 2-fluoro-2-deoxyribose-1-phosphate and 2,2-difluoro-2-deoxyribose-1-phosphate” (Bioorg Med Chem Lett, 2013).
# Assays:
# [1] = Cytotoxicity against human HEL cells; type: cell-based
# [2] = Cytotoxicity against cat CRFK cells; type: cell-based, Felis catus
# [3] = test system: CCRF-CEM; assay: Cytotoxicity against human CEM cells; type: cell-based
# [4] = test system: L1210; assay: Cytotoxicity against mouse L1210 cells; type: cell-based
# [5] = test system: Human immunodeficiency virus 2; assay: Antiviral activity against HIV-2 ROD infected in human CEM cells assessed as HIV-induced host giant cell formation after 4 days by microscopic analysis; type: functional, organism-based; settings: Human immunodeficiency virus 2, ISOLATE ROD, CCRF-CEM, 96 h
# [6] = test system: Human immunodeficiency virus 1; assay: Antiviral activity against HIV-1 3B infected in human CEM cells assessed as HIV-induced host giant cell formation after 4 days by microscopic analysis; type: functional, organism-based; settings: Human immunodeficiency virus 1, 3B, CCRF-CEM, 96 h
# [7] = test system: Felid alphaherpesvirus 1; assay: Antiviral activity against Feline herpesvirus in cat CrFK cells assessed as plaque formation; type: functional, organism-based; settings: Felid alphaherpesvirus 1, CRFK
# [8] = test system: Feline coronavirus; assay: Antiviral activity against Feline coronavirus in cat CrFK cells assessed as plaque formation; type: functional, organism-based; settings: Alphacoronavirus 1, CRFK
# [9] = test system: Cytomegalovirus; assay: Antiviral activity against Cytomegalovirus Davis infected in HEL cells assessed as inhibition of virus-induced cytopathicity; type: functional, organism-based; settings: Human betaherpesvirus 5, Davis
# [10] = test system: Human betaherpesvirus 5; assay: Antiviral activity against Cytomegalovirus AD-169 infected in HEL cells assessed as inhibition of virus-induced cytopathicity; type: functional, organism-based; settings: Human betaherpesvirus 5, AD169, HEL
# [11] = test system: Human alphaherpesvirus 3; assay: Antiviral activity against Varicellla-zoster virus 07-1 infected in HEL cells assessed as inhibition of virus-induced cytopathicity; type: functional, organism-based; settings: Human alphaherpesvirus 3, 07-1, HEL
# [12] = test system: Human alphaherpesvirus 3; assay: Antiviral activity against Varicellla-zoster virus Oka infected in HEL cells assessed as inhibition of virus-induced cytopathicity; type: functional, cell-based; settings: Human alphaherpesvirus 3, strain Oka vaccine
# [13] = test system: Human alphaherpesvirus 1; assay: Antiviral activity against thymidine kinase-deficient ACV-resistant HSV-1 KOS infected in HEL cells assessed as inhibition of virus-induced cytopathicity; type: functional, organism-based; settings: Human alphaherpesvirus 1, KOS
# [14] = test system: Vesicular stomatitis virus; assay: Antiviral activity against Vesicular somatitis virus infected in HEL cells assessed as inhibition of virus-induced cytopathicity; type: functional, organism-based
# [15] = test system: Vaccinia virus; assay: Antiviral activity against Vaccinia virus Lederle infected in HEL cells assessed as inhibition of virus-induced cytopathicity; type: functional, organism-based; settings: Orthopoxvirus vaccinia
# [16] = test system: Human alphaherpesvirus 2; assay: Antiviral activity against HSV-2 G infected in HEL cells assessed as inhibition of virus-induced cytopathicity; type: functional, organism-based; settings: Human alphaherpesvirus 2, strain G
# [17] = test system: Human alphaherpesvirus 1; assay: Antiviral activity against HSV-1 KOS infected in HEL cells assessed as inhibition of virus-induced cytopathicity; type: functional, organism-based; settings: Human alphaherpesvirus 1, KOS
SMILES,MCC [1],CC50 [2],IC50 [3],IC50 [4],EC50 [5],EC50 [6],EC50 [7],EC50 [8],EC50 [9],EC50 [10],EC50 [11],EC50 [12],EC50 [13],EC50 [14],EC50 [15],EC50 [16],EC50 [17]
C[C@H](NP(=O)(Oc1cccc2ccccc12)O[C@H]1O[C@H](CO)[C@@H](O)C1(F)F)C(=O)OC1CCCCC1 (stereo not given in full),≥ 100 µM,> 100 µM,> 30 µM,> 30 µM,> 50 µM,> 50 µM,> 20 µM,> 20 µM,> 20 µM,> 20 µM,> 20 µM,> 20 µM,> 20 µM,> 20 µM,> 20 µM,> 20 µM,> 20 µM
C[C@H](NP(=O)(Oc1ccccc1)O[C@@H]1O[C@H](CO)[C@@H](O)C1(F)F)C(=O)OC1CCCCC1 (stereo not given in full),≥ 100 µM,> 100 µM,> 30 µM,> 30 µM,> 250 µM,> 250 µM,> 20 µM,> 20 µM,> 20 µM,> 20 µM,> 20 µM,> 20 µM,> 20 µM,> 20 µM,> 20 µM,> 20 µM,> 20 µM
C[C@H](NP(=O)(Oc1cccc2ccccc12)O[C@@H]1O[C@H](CO)[C@@H](O)C1(F)F)C(=O)OC1CCCCC1 (mixture of isomers),≥ 100 µM,> 100 µM,> 30 µM,> 30 µM,> 50 µM,> 50 µM,> 20 µM,> 20 µM,> 20 µM,> 20 µM,> 20 µM,> 20 µM,> 20 µM,> 20 µM,> 20 µM,> 20 µM,> 20 µM
C[C@H](NP(=O)(Oc1ccccc1)O[C@H]1O[C@H](CO)[C@@H](O)C1(F)F)C(=O)OCC(C)(C)C (mixture of isomers),≥ 100 µM,> 100 µM,> 30 µM,> 30 µM,> 250 µM,> 250 µM,> 20 µM,> 20 µM,> 20 µM,> 20 µM,> 20 µM,> 20 µM,> 20 µM,> 20 µM,> 20 µM,> 20 µM,> 20 µM
COC(=O)[C@H](C)NP(=O)(Oc1ccccc1)O[C@H]1O[C@H](CO)[C@@H](O)C1(F)F (mixture of isomers),≥ 100 µM,> 100 µM,> 30 µM,> 30 µM,> 250 µM,> 250 µM,> 20 µM,> 20 µM,> 20 µM,> 20 µM,> 20 µM,> 20 µM,> 20 µM,> 20 µM,> 20 µM,> 20 µM,> 20 µM
COC(=O)[C@@H](NP(=O)(Oc1ccccc1)O[C@H]1O[C@H](CO)[C@@H](O)C1(F)F)C(C)C (mixture of isomers),≥ 100 µM,> 100 µM,> 30 µM,> 30 µM,> 250 µM,> 250 µM,> 20 µM,> 20 µM,> 20 µM,> 20 µM,> 20 µM,> 20 µM,> 20 µM,> 20 µM,> 20 µM,> 20 µM,> 20 µM
COC(=O)[C@@H](NP(=O)(Oc1cccc2ccccc12)O[C@H]1O[C@H](CO)[C@@H](O)C1(F)F)C(C)C (mixture of isomers),≥ 100 µM,> 100 µM,> 30 µM,> 30 µM,> 50 µM,> 50 µM,> 20 µM,> 20 µM,> 20 µM,> 20 µM,> 20 µM,> 20 µM,> 20 µM,> 20 µM,> 20 µM,> 20 µM,> 20 µM
C[C@H](NP(=O)(Oc1cccc2ccccc12)O[C@H]1O[C@H](CO)[C@@H](O)C1(F)F)C(=O)OCC(C)(C)C (mixture of isomers),≥ 100 µM,> 100 µM,> 30 µM,> 30 µM,> 50 µM,> 50 µM,> 20 µM,> 20 µM,> 20 µM,> 20 µM,> 20 µM,> 20 µM,> 20 µM,> 20 µM,> 20 µM,> 20 µM,> 20 µM
COC(=O)[C@H](C)NP(=O)(Oc1cccc2ccccc12)O[C@H]1O[C@H](CO)[C@@H](O)C1(F)F (mixture of isomers),≥ 100 µM,> 100 µM,> 30 µM,> 30 µM,> 50 µM,> 50 µM,> 20 µM,> 20 µM,> 20 µM,> 20 µM,> 20 µM,> 20 µM,> 20 µM,> 20 µM,> 20 µM,> 20 µM,> 20 µM
C[C@H](NP(=O)(Oc1ccccc1)O[C@@H]1O[C@H](CO)[C@@H](O)C1(F)F)C(=O)OCC(C)(C)C (mixture of isomers),≥ 100 µM,> 100 µM,> 30 µM,> 30 µM,> 250 µM,> 250 µM,> 20 µM,> 20 µM,> 20 µM,> 20 µM,> 20 µM,> 20 µM,> 20 µM,> 20 µM,> 20 µM,> 20 µM,> 20 µM
COC(=O)[C@H](C)NP(=O)(Oc1ccccc1)O[C@@H]1O[C@H](CO)[C@@H](O)C1(F)F (mixture of isomers),≥ 100 µM,> 100 µM,> 30 µM,> 30 µM,> 250 µM,> 250 µM,> 20 µM,> 20 µM,> 20 µM,> 20 µM,> 20 µM,> 20 µM,> 20 µM,> 20 µM,> 20 µM,> 20 µM,> 20 µM
COC(=O)[C@@H](NP(=O)(Oc1ccccc1)O[C@@H]1O[C@H](CO)[C@@H](O)C1(F)F)C(C)C (mixture of isomers),≥ 100 µM,> 100 µM,> 30 µM,> 30 µM,> 250 µM,> 250 µM,> 20 µM,> 20 µM,> 20 µM,> 20 µM,> 20 µM,> 20 µM,> 20 µM,> 20 µM,> 20 µM,> 20 µM,> 20 µM
COC(=O)[C@@H](NP(=O)(Oc1cccc2ccccc12)O[C@@H]1O[C@H](CO)[C@@H](O)C1(F)F)C(C)C (mixture of isomers),≥ 100 µM,> 100 µM,> 30 µM,> 30 µM,> 50 µM,> 50 µM,> 20 µM,> 20 µM,> 20 µM,> 20 µM,> 20 µM,> 20 µM,> 20 µM,> 20 µM,> 20 µM,> 20 µM,> 20 µM
C[C@H](NP(=O)(Oc1cccc2ccccc12)O[C@@H]1O[C@H](CO)[C@@H](O)C1(F)F)C(=O)OCC(C)(C)C (mixture of isomers),≥ 100 µM,> 100 µM,> 30 µM,> 30 µM,> 50 µM,> 50 µM,> 20 µM,> 20 µM,> 20 µM,> 20 µM,> 20 µM,> 20 µM,> 20 µM,> 20 µM,> 20 µM,> 20 µM,> 20 µM
COC(=O)[C@H](C)NP(=O)(Oc1cccc2ccccc12)O[C@@H]1O[C@H](CO)[C@@H](O)C1(F)F (mixture of isomers),≥ 100 µM,> 100 µM,> 30 µM,> 30 µM,> 50 µM,> 50 µM,> 20 µM,> 20 µM,> 20 µM,> 20 µM,> 20 µM,> 20 µM,> 20 µM,> 20 µM,> 20 µM,> 20 µM,> 20 µM
